Laboratory results published in patent publication US12186332B2, “Methods for overcoming WNT/beta-catenin anti-cancer resistance in leukemia stem cells” (STOWERS INSTITUTE FOR MEDICAL RESEARCH, priority 2019, dated 2025).

Key:
[1] = system: blast cells, LSCs and HSPCs of leukemic Pten:β-cat^Act mice; type: in vivo; settings: low-dose DNR with chemotherapy
Procedure: Leukemic mice were treated with vehicle, chemotherapy, [Low]DXR (5×0.5 mg/kg), clinical DXR (1×20 mg/kg), or chemotherapy+[Low]DXR as described in FIG. S2.
Average frequency of each population (n≥6 per group) is shown.
Absolute number/femur±SD of each population (n≥6 per group) is shown.
At 10 days post-treatment, BM was analyzed by flow cytometry to determine frequency of blast cells. Average frequency±SD (n 6 per group). Note that this experiment used clinical dose (normal) or [Low]
Alternatively, a single injection on day 1 of 0.8 or 2.5 μg/g of DXR-loaded nanoparticles (NanoDXR) was given with and without chemotherapy. At 10 days post-treatment, BM was analyzed by flow cytometry to determine frequency of LSCs. Shown is average frequency±SD (n 6 per group).
Alternatively, a single injection on day 1 of 0.8 or 2.5 μg/g of DXR-loaded nanoparticles (NanoDXR) was given with and without chemotherapy. At 10 days post-treatment, BM was analyzed by flow cytometry to determine frequency of HSPCs. Shown is average frequency±SD (n 6 per group).
Whole bone marrow was isolated from uninduced HSC-SCL-Cre^+ Pten^fx/fx βcat^fx(Exon3)/+ (Pn:β-cat^Act) mice and combined with an equal portion of Cre negative bone marrow from a littermate and transplanted into irradiated (10 Grays) B6.SJL-Ptprc^a Pepc^b/BoyJ (Ptprc) recipients.
Chemotherapy for the animal model consisted of Nelarabine (Selleck) and Dexamethasone (BioVision) administered daily for 5 days consecutively. 43.4 mg/ml Nelarabine was administered intravenously via the tail vain according to the formula: Body Weight (g)×5=volume to inject (μl), which yielded 217 mg/kg. 2.5 mg/ml Dexamethasone was injected intraperitoneally according to the formula: Body Weight (g)×4=volume to inject (μl), yielding 10 mg/kg. […] [Low] NanoDXR treatment used doxorubicin nanoparticles (Tran et al. 2014) administered as a single IV injection once per week on day 1 relative to above treatments using 0.8 mg/kg. Maintenance [Low] NanoDXR consisted of once per week injections of 0.4 mg/kg. Groups combining Nelarabine with Doxorubicin used a single injection containing both drugs. All drugs were solubilized in 45% (2-Hydroxypropyl)-p-cyclodextrin (HBC) or 0.9% NaCl.
Cells were collected from bone marrow (femur and tibia), spleen, peripheral blood, and thymus. For cell surface phenotyping, a lineage cocktail (Lin) was used including CD3 (for HSPC but not LSC analysis), CD4, CD8, Mac-1, Gr, B220, IgM, and Ter119 (eBioscience, San Diego, CA). Monoclonal antibodies against CD3 (separate fluorophore for LSC analysis), Sca-1, c-Kit, CD45.1, and CD45.2 were also used where indicated. Cell sorting and analysis were performed using an inFlux (BD), MoFlo (Dako, Ft. Collins, CO) and/or CyAn ADP (Dako, Ft. Collins, CO). Data analysis was performed using FlowJo software (Ashland, OR).

[2] = system: pS^552-β-cat^+ LSCs; experiment: Pilot clinical trial of low-dose DNR in relapsed/refractory adult AML; type: in vivo, human; settings: low-dose DNR 6.75 mg/m^2 daily ×5; BM day 0 vs day 8
From the text: This was registered at clinicaltrials.gov (identifier NCT02914977). All patients provided informed consent according to institutional guidelines. At least two prior induction attempts were required for fit patients with primary refractory leukemia; unfit or relapsed patients were allowed entry with one prior therapy. There was no limit on number of prior therapies. […] Exclusion criteria included presence of acute promyelocytic leukemia, CNS leukemia or total lifetime anthracycline exposure exceeding the equivalent of 900 mg/m^2 of DNR. Treatment consisted of bone marrow aspiration for correlative studies followed by one cycle of low dose DNR (6.75 mg/m^2×5 consecutive days, days 1-5) and second bone marrow aspiration on day 8. Effects on LSC population were measured by flow cytometry. Adverse events (AEs) and laboratory values were monitored for safety. This study is compliant with all relevant ethical regulations regarding research involving human participants and was approved by the Human Subjects Committee at the University of Kansas.

[3] = system: Akt-enhanced β-catenin activity (TOP-Luc); experiment: HTS TOPFlash/FOPFlash luciferase reporter dose-response; type: cell-based; settings: DNR dose-response (FIG. 13A)

For `COc1cccc2c1C(=O)c1c(O)c3c(c(O)c1C2=O)C[C@@](O)(C(C)=O)C[C@@H]3O[C@H]1C[C@H](N)[C@H](O)[C@H](C)O1` [DNR, Daunorubicin], the “LSC, HSPC and blast cell frequency compared with low-dose doxorubicin” value [1] was “performs similarly to low-dose doxorubicin”, the “patients with substantial reductions in pS552-β-cat+ LSCs” value [2] was 5/10 and the “patients with unchanged pS552-β-cat+ LSCs” value [2] was 3/8. For the same molecule, the “inhibition of pS552-β-catenin compared with DXR” value [3] was “similarly inhibits pS^552-β-catenin”.
